In patent publication US20060235222A1, “Indole-derivative modulators of steroid hormone nuclear receptors” (ELI LILLY AND COMPANY, priority 2003, published 2006):

Experiments:
human MR = biological target: T1, human MR (Homo sapiens, UniProt P08235); assay: Mineralocorticoid Receptor Binding Assay (Method 1), [3H]-aldosterone competition; conditions: 0.5 nM [3H]-aldosterone, human MR expressed in Sf9 cells
T1 construct: The full length human MR gene is cloned from a human kidney or human brain cDNA library; inferred from own knowledge of the pAcHLT vector (N); made in house; host or cells: Sf9 insect cells (baculovirus)
T1 sequence (P08235 1-984): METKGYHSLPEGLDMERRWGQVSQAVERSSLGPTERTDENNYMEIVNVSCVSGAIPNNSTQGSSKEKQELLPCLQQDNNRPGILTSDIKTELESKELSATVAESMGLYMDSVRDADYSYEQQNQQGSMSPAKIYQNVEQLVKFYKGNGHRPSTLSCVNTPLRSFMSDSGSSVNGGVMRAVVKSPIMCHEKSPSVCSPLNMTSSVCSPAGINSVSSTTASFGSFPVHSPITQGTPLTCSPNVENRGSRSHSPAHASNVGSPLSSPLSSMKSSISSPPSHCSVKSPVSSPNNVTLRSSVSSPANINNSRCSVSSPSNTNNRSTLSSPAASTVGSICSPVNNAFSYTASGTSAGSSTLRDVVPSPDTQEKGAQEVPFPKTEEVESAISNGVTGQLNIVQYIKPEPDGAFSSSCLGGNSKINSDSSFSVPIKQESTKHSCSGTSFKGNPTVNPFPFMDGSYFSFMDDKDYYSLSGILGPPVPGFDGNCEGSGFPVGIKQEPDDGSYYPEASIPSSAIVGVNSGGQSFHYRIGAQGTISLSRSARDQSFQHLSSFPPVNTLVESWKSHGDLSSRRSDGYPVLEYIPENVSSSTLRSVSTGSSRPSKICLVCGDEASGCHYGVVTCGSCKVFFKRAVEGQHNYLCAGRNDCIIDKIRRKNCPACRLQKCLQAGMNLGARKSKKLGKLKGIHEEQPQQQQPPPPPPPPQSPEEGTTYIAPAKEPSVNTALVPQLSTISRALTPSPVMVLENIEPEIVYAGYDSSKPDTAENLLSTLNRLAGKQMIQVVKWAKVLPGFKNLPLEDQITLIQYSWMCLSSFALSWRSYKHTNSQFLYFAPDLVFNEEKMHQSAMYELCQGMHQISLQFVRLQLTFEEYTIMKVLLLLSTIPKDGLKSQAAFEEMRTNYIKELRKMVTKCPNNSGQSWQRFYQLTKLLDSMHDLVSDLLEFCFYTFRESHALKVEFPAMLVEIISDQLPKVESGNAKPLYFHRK
Method in brief: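 Full-length human MR expressed in Sf9 cells via baculovirus; lysate supernatant (about 20-25 μg protein) incubated with 0.5 nM [3H]-aldosterone and test compound for about 16 h at 4° C. Buffer was Tris/molybdate/phosphate/pyrophosphate with 10% glycerol, pH 7.5; filter-bound complex counted by scintillation.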

glucocorticoid receptor = biological target: T2, glucocorticoid receptor (Homo sapiens, UniProt P04150); assay: Glucocorticoid Receptor Binding Assay (Method 1), [3H]-dexamethasone competition, A549 cell extract; conditions: 1.86 nM [3H]-dexamethasone, read-out: GR Ki (nM) Method 1
T2 construct: containing 50-200 ug of A549 cell extract and 1.86 nM; host or cells: A549 human lung epithelial cells
T2 sequence (P04150 1-777): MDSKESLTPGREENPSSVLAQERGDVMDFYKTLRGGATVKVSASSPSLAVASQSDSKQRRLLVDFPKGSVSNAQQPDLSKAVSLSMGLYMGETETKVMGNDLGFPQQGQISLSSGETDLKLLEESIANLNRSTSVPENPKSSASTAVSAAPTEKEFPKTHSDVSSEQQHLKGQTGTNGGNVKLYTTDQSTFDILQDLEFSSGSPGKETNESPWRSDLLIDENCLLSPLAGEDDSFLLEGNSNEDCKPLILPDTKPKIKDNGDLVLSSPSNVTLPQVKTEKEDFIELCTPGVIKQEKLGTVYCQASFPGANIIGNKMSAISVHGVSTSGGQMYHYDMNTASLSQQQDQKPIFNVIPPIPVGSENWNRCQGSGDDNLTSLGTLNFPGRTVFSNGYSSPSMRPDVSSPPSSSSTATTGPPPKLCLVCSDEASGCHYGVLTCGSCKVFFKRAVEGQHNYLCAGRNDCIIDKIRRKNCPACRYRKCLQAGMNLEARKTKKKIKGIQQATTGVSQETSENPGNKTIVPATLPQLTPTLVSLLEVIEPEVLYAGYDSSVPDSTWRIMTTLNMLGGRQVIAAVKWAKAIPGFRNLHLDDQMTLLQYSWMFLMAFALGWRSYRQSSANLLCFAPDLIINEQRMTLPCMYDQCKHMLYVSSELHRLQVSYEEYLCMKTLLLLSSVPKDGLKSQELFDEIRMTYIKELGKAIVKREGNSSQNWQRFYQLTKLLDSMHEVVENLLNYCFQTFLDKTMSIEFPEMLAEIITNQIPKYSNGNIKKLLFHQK
Method in brief: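 Receptor source: sonicated extract of human A549 lung epithelial cells in glycerol/Tris-HCl pH 7.2 buffer with sodium molybdate. [3H]-dexamethasone competition run 16 h at 4 °C; unbound radioligand stripped with dextran-coated charcoal (8 min, RT) and receptor-bound radioactivity quantified by scintillation counting.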

[1] = biological target: T3, human GR (glucocorticoid receptor) (Homo sapiens, UniProt P04150); assay: Alternative Binding Assay Protocol (Method 2), 293-GR lysate, 3H-dexamethasone competition; conditions: 0.3 nM 3H-dexamethasone
T3 construct: expressed in transfected cells; host or cells: 293 cells
T3 sequence (P04150 1-777): T2 sequence (P04150 1-777)
Method: Alternative Binding Assay Protocol for MR, GR, AR, and PR (Method 2):
Cell lysates from 293 cells overexpressing human GR (glucocorticoid receptor), AR (androgen receptor), MR (mineralocorticoid receptor) or PR (progesterone-receptor) are used for competition binding assays to determine Ki values for test compounds. […] Competing compounds are added at various concentraions in half-log increments. Non-specific binding is determined in the presence of 500 nM dexamethasone for GR binding, 500 nM aldosterone for MR binding, or 500 nM methyltrienolone for AR and PR binding. The binding reaction (140 μl) is incubated for overnight at 4° C., then 70 μl of cold charcoal-dextran buffer (containing per 50 ml of assay buffer, 0.75 g of charcoal and 0.25 g of dextran) is added to each reaction. Plates are mixed 8 minutes on an orbital shaker at 4° C. Plates are then centrifuged at 3,000 rpm at 4° C. for 10 minutes. An aliquot of 120 μl of the mix is transferred to another 96-well plate and 175 μl of Wallac Optiphase “Hisafe 3” scintillation fluid is added to each well. Plates are sealed and shaken vigorously on an orbital shaker. After an incubation of 2 hrs, plates are read in a Wallac Microbeta counter. […] The Kd for ^3H-dexamethasone for GR binding, ^3H-methyltrienolone for AR binding, ^3H-aldosterone for MR binding, or ^3H-methyltrienolone for PR binding, is determined by saturation binding. The IC50 values for compounds are converted to Ki using Cheng-Prusoff equation and the Kd determined by saturation binding assay.

| Compound | Ki (human MR) [nM] | Ki (glucocorticoid receptor) [nM] | melting point | Ki [1] [nM] |
| --- | --- | --- | --- | --- |
| CCC(CC)(c1ccc(F)cc1)c1c[nH]c2c(NS(C)(=O)=O)cccc12 [Example 59, N-{3-[1-Ethyl-1-(4-fluoro-phenyl)-propyl]-1H-indol-7-yl}-methanesulfonamide] | < 500 | < 500 | 137 to 138 °C |  |
| CCC(CC)(c1ccc(F)cc1F)c1c[nH]c2c(NS(C)(=O)=O)cccc12 [Example 62, N-{3-[1-(2,4-Difluoro-phenyl)-1-ethyl-propyl]-1H-indol-7-yl}-methanesulfonamide] | < 500 | < 500 | 144 to 147 °C |  |
| CCC(CC)(c1ccc2[nH]cnc2c1)c1c[nH]c2c(NS(C)(=O)=O)cccc12 [Example 134, N-{3-[1-(1H-Benzoimidazol-5-yl)-1-ethyl-propyl]-1H-indol-7-yl}-methanesulfonamide] | < 500 |  | 150 to 165 °C | < 500 |
| CCC(CC)(c1ccc2sccc2c1)c1c[nH]c2c(NS(C)(=O)=O)cccc12 [Example 135, N-[3-(1-Benzo[b]thiophen-5-yl-1-ethyl-propyl)-1H-indol-7-yl]-methanesulfonamide] | < 500 |  | 85 to 95 °C | < 500 |
| CCC(CC)(c1ccc2nc(C)oc2c1)c1c[nH]c2c(NS(C)(=O)=O)cccc12 [Example 136, N-{3-[1-Ethyl-1-(2-methyl-benzooxazol-6-yl)-propyl]-1H-indol-7-yl}-methanesulfonamide] | < 500 |  | 98 to 105 °C | < 1000 |
| CCC(CC)(c1ccc2ncoc2c1)c1c[nH]c2c(NS(C)(=O)=O)cccc12 [Example 137, N-[3-(1-Benzooxazol-6-yl-1-ethyl-propyl)-1H-indol-7-yl]-methanesulfonamide] | < 500 |  | 211 to 213 °C | < 500 |
| CCC(CC)(c1ccc2[nH]ncc2c1)c1c[nH]c2c(NS(C)(=O)=O)cccc12 [Example 138, N-{3-[1-Ethyl-1-(1H-indazol-5-yl)-propyl]-1H-indol-7-yl}-methanesulfonamide] | < 500 |  | 123 to 128 °C | < 500 |
| CCC(CC)(c1ccc2ccsc2c1)c1c[nH]c2c(NS(C)(=O)=O)cccc12 [Example 139, N-[3-(1-Benzo[b]thiophen-6-yl-1-ethyl-propyl)-1H-indol-7-yl]-methanesulfonamide] | < 500 |  | 97 to 107 °C | < 500 |
| CCC(CC)(c1ccc2scnc2c1)c1c[nH]c2c(NS(C)(=O)=O)cccc12 [Example 142, N-[3-(1-Benzothiazol-5-yl-1-ethyl-propyl)-1H-indol-7-yl]-methanesulfonamide] | < 500 |  | 105 to 115 °C (dec.) |  |
| CCC(CC)(c1ccc2c(N)noc2c1)c1c[nH]c2c(NS(C)(=O)=O)cccc12 [Example 143, N-{3-[1-(3-Amino-benzo[d]isoxazol-6-yl)-1-ethyl-propyl]-1H-indol-7-yl}-methanesulfonamide] | < 500 |  | 95 to 105 °C |  |
| CCC(CC)(c1ccc2nc(N)sc2c1)c1c[nH]c2c(NS(C)(=O)=O)cccc12 [Example 144, N-{3-[1-(2-Amino-benzothiazol-6-yl)-1-ethyl-propyl]-1H-indol-7-yl}-methanesulfonamide] | < 500 |  | 155 to 160 °C |  |
| CCC(CC)(c1ccc2ncsc2c1)c1c[nH]c2c(NS(C)(=O)=O)cccc12 [Example 149, N-[3-(1-Benzothiazol-6-yl-1-ethyl-propyl)-1H-indol-7-yl]-methanesulfonamide] | < 500 |  | 117 to 120 °C |  |

Now from value to compound:

| Ki (human MR) [nM] | Ki (glucocorticoid receptor) [nM] | melting point | Ki [1] [nM] | Compound |
| --- | --- | --- | --- | --- |
| < 500 |  | 155 to 161 °C |  | CCC(CC)(c1ccc2onc(N)c2c1)c1c[nH]c2c(NS(C)(=O)=O)cccc12 [Example 152, N-{3-[1-(3-Amino-benzo[d]isoxazol-5-yl)-1-ethyl-propyl]-1H-indol-7-yl}-methanesulfonamide] |
|  |  | 188 to 192 °C | < 500 | CCC(CC)(c1ccc2nc(C)[nH]c2c1)c1c[nH]c2c(NS(C)(=O)=O)cccc12 [Example 154, N-{3-[1-Ethyl-1-(2-methyl-3H-benzoimidazol-5-yl)-propyl]-1H-indol-7-yl}-methanesulfonamide] |
| < 500 |  | 115 to 120 °C |  | CCC(CC)(c1ccc2[nH]ccc2c1)c1c[nH]c2c(NS(C)(=O)=O)cccc12 [Example 157, N-{3-[1-Ethyl-1-(1H-indol-5-yl)-propyl]-1H-indol-7-yl}-methanesulfonamide] |
|  |  | 216 to 218 °C | < 500 | CCC(CC)(c1ccc2ccn(C(C)=O)c2c1)c1c[nH]c2c(NS(C)(=O)=O)cccc12 [Example 158, N-{3-[1-(1-Acetyl-1H-indol-6-yl)-1-ethyl-propyl]-1H-indol-7-yl}-methanesulfonamide] |
| < 500 |  | 110 to 115 °C |  | CCC(CC)(c1ccc2cc[nH]c2c1)c1c[nH]c2c(NS(C)(=O)=O)cccc12 [Example 159, N-{3-[1-Ethyl-1-(1H-indol-6-yl)-propyl]-1H-indol-7-yl}-methanesulfonamide] |
|  |  | 275 to 278 °C |  | CCC(CC)(c1ccc2c(c1)nc(C)n2C)c1c[nH]c2c(NS(C)(=O)=O)cccc12 [Example 162, N-{3-[1-(1,2-Dimethyl-1H-benzoimidazol-5-yl)-1-ethyl-propyl]-1H-indol-7-yl}-methanesulfonamide] |
